Measured values from US6528655B1, “Aromatic derivatives with HIV integrase inhibitory properties” (Pharmacor, Inc., priority 2000, dated 2003).

These compounds were tested against HIV-1 integrase (Human immunodeficiency virus type 1 group M subtype B, UniProt P04585) (assay: HIV-1 integrase inhibition assay (radiolabeled duplex substrate corresponding to the U5 end of the HIV LTR)). Settings: not given.
Format: biochemical
Procedure: For the purpose of Table 1 to 4, the HIV-1 integrase inhibition assay was carried out following a known procedure (Burke, Jr. T. R. et al., J. Med. Chem. 38, 4171-4178 (1995)). A suitable radiolabeled duplex substrate corresponding to the U5 end of the HIV LTR was used.
For the purposes of Table 1 to 4 the HIV-1 integrase inhibition assay was based on a known procedure (Hazuda, D. J. et al., Nucleic Acids Res. 22 1121-1122 (1994)).

Q: With `CC(C)(C)OC[C@H](NC(=O)c1cc(O)c(O)c(O)c1)C(=O)NCCc1ccc(O)c(O)c1` [Example 43, N-[Nα-(3,4,5-Trihydroxybenzoyl)-O-tert-butyl-L-seryl]dopamine] as the compound, how does the IC50 read?
A: 0.152 µM

Q: `COc1ccc(OC)c(C=CC(=O)N[C@@H](COC(C)(C)C)C(=O)NCCc2ccc(O)c(O)c2)c1` [Example 44, N-[Nα-(2,5-Dimethoxycinnamoyl)-O-tert-butyl-L-seryl]dopamine] was tested. Which IC50 did it give?
A: > 10 µM

Q: How did the IC50 turn out when `O=C(N[C@@H](CO)C(=O)NCCc1ccc(O)c(O)c1)c1cc(O)c(O)c(O)c1` [Example 45, N-[Nα-(3,4,5-Trihydroxybenzoyl)-L-seryl]dopamine] was run?
A: 0.446 µM

Q: With `COc1ccc(OC)c(C=CC(=O)N[C@@H](CO)C(=O)NCCc2ccc(O)c(O)c2)c1` [Example 46, N-[Nα-(2,5-Dimethoxycinnamoyl)-L-seryl]dopamine] as the compound, how does the IC50 read?
A: > 10 µM

Q: `Cc1ccc(C(NC(=O)CC[C@H](NC(=O)/C=C/c2ccc(O)c(O)c2)C(=O)NCCc2ccc(O)c(O)c2)(c2ccccc2)c2ccccc2)cc1` [Example 48, N-(Nα-Caffeoyl-Nδ-methyltrityl-L-glutaminyl)dopamine] was tested. Which IC50 did it give?
A: 1.15 µM

Q: With `Cc1ccc(C(NC(=O)CC[C@H](NC(=O)c2ccc(O)c(O)c2)C(=O)NCCc2ccc(O)c(O)c2)(c2ccccc2)c2ccccc2)cc1` [Example 49, N-[Nα-(3,4-Dihydroxybenzoyl)-Nδ-methyltrityl-L-glutaminyl]dopamine] as the compound, how does the IC50 read?
A: 1.3 µM

Q: With `Cc1ccc(C(NC(=O)CC[C@H](NC(=O)/C=C/c2cccc([N+](=O)[O-])c2)C(=O)NCCc2ccc(O)c(O)c2)(c2ccccc2)c2ccccc2)cc1` [Example 50, N-[Nα-(3-Nitrocinnamoyl)-Nδ-methyltrityl-L-glutaminyl]dopamine] as the compound, how does the IC50 read?
A: 3.95 µM

Q: `O=C(N[C@@H](Cc1cn(C(c2ccccc2)(c2ccccc2)c2ccccc2)cn1)C(=O)NCCc1ccc(O)c(O)c1)c1ccc(O)cc1` [Example 52, N-[Nα-(4-Hydroxybenzoyl)-Nτ-trityl-L-histidinyl]dopamine] was tested. Which IC50 did it give?
A: 3.3 µM

Q: How did the IC50 turn out when `CC(C)(C)OC(=O)NCCC[C@H](NC(=O)c1cc(O)c(O)c(O)c1)C(=O)NCCc1ccc(O)c(O)c1` [Example 54, N-[Nα-(3,4,5-Trihydrozybenzoyl)-Nδ-butoxycarbonyl-L-ornithyl]dopamine] was run?
A: 0.374 µM

Q: For `O=C(NCCCC[C@H](NC(=O)c1cc2cccc(O)c2cc1O)C(=O)NO)c1cc2cccc(O)c2cc1O` [Example 56, Nα,Nε-di-(3,5-Dihydroxynaphthyl-2-carbonyl)-L-lysine hydroxylamide], which IC50 is on record?
A: 5.3 µM

Q: For `O=C(N[C@@H](Cc1ccc(O)cc1)C(=O)NCCc1ccc(O)c(O)c1)c1cc2cccc(O)c2cc1O` [Example 57, N-[Nα-(3,5-Dihydroxynaphthyl-2-carbonyl)-L-tyrosyl]dopamine], which IC50 is on record?
A: 1.1 µM

Q: Which IC50 does the source give for `O=C(N[C@@H](Cc1ccc(O)cc1)C(=O)NCCc1ccc(O)c(O)c1)c1cc(O)c2cccc(O)c2n1` [Example 58, N-[Nα-(4,8-Dihydroxyquinoline-2-carbonyl)-L-tyrosyl]dopamine] here?
A: 1.2 µM

Q: Which IC50 does the source give for `O=C(N[C@@H](Cc1c[nH]c2ccccc12)C(=O)NCCc1ccc(O)c(O)c1)c1cc2cccc(O)c2cc1O` [Example 59, N-[Nα-(3,5-Dihydroxynaphthyl-2-carbonyl)-L-tryptophanyl]dopamine] here?
A: 0.62 µM

Q: How did the IC50 turn out when `O=C(N[C@@H](Cc1ccc(O)c(O)c1)C(=O)NCCc1ccc(O)c(O)c1)c1cc2cccc(O)c2cc1O` [Example 60, N-[Nα-(3,5-Dihydroxynaphthyl-2-carbonyl)-L-3,4-dihydroxyphenylalanyl]dopamine] was run?
A: 1.8 µM

Q: With `NC(=O)C[C@H](NC(=O)c1cc2cccc(O)c2cc1O)C(=O)NCCc1ccc(O)c(O)c1` [Example 61, N-[Nα-(3,5-Dihydroxynaphthyl-2-carbonyl)-L-asparagyl]dopamine] as the compound, how does the IC50 read?
A: > 5 µM

Q: With `CC(C)(C)OC(=O)C[C@H](NC(=O)c1cc(O)c2cccc(O)c2n1)C(=O)NCCc1ccc(O)c(O)c1` [Example 62, N-[Nα-(4,8-Dihydroxyquinoline-2-carbonyl)-Oγ-ted-butyl-L-aspartyl]dopamine] as the compound, how does the IC50 read?
A: > 5 µM

Q: `O=C(C[C@H](NC(=O)c1cc(O)c2cccc(O)c2n1)C(=O)NCCc1ccc(O)c(O)c1)NC(c1ccccc1)(c1ccccc1)c1ccccc1` [Example 64, N-[Nα-(4,8-Dihydroxyquinoline-2-carbonyl)-Nγ-trityl-L-asparagyl]dopamine] was tested. Which IC50 did it give?
A: 7.1 µM

Q: Which IC50 does the source give for `O=C(NCCCC[C@H](NC(=O)c1cc2cccc(O)c2cc1O)C(=O)NCCc1ccc(O)c(O)c1)c1cc2cccc(O)c2cc1O` [Example 66, N-[Nα,Nε-di-(3,5-Dihydroxynaphthyl-2-carbonyl)-L-lysyl]dopamine] here?
A: > 5 µM

Q: How did the IC50 turn out when `NC(=O)C[C@H](NC(=O)c1cc(O)c2cccc(O)c2n1)C(=O)NCCc1ccc(O)c(O)c1` [Example 67, N-[Nα-(4,8-Dihydroxyquinoline-2-carbonyl)-L-asparagyl]dopamine] was run?
A: > 5 µM

Q: How did the IC50 turn out when `O=C(N[C@@H](Cc1ccc(O)cc1)C(=O)NCc1ccc(O)c(O)c1)c1cc(O)c2cccc(O)c2n1` [Example 68, N-[Nα-(4,8-Dihydroxyquinoline-2-carbonyl)-L-tyrosyl]-3,4-dihydroxybenzylamine] was run?
A: > 5 µM

Q: `Cc1ccc(C(NC(=O)CC[C@H](NC(=O)c2cc(O)c3cccc(O)c3n2)C(=O)NCc2ccc(O)c(O)c2)(c2ccccc2)c2ccccc2)cc1` [Example 69, N-[Nα-(4,8-Dihydroxyquinoline-2-carbonyl)-Nδ-methyltrityl-L-glutaminyl]-3,4-dihydroxybenzylamine] was tested. Which IC50 did it give?
A: 0.346 µM

Q: With `O=C(N[C@@H](Cc1cn(C(c2ccccc2)(c2ccccc2)c2ccccc2)cn1)C(=O)NCc1ccc(O)c(O)c1)c1cc(O)c2cccc(O)c2n1` [Example 70, N-[Nα-(4,8-Dihydroxyquinoline-2-carbonyl)-Nτ-trityl-L-histidinyl]-3,4-dihydroxybenzylamine] as the compound, how does the IC50 read?
A: 0.403 µM

Q: Which IC50 does the source give for `CC(C)(C)OC[C@H](NC(=O)c1cc(O)c2cccc(O)c2n1)C(=O)NCCc1ccc(O)c(O)c1` [Example 72, N-[Nα-(4,8-Dihydroxyquinoline-2-carbonyl)-O-tert-butyl-L-seryl]dopamine] here?
A: > 10 µM

Q: Which IC50 does the source give for `O=C(N[C@@H](Cc1ccc(O)cc1)C(=O)NNC(=O)c1ccccc1O)c1cc(O)c2cccc(O)c2n1` [Example 73, N1-[Nα-(4,8-Dihydroxyquinoline-2-carbonyl)-L-tyrosyl]-N2-(2-hydroxybenzoyl)-hydrazine] here?
A: 2.2 µM

Q: With `O=C(/C=C/c1ccc(O)c(O)c1)N[C@@H](Cc1ccc(O)cc1)C(=O)NNC(=O)c1ccccc1O` [Example 74, N1-(Nα-Caffeoyl-L-tyrosyl)-N2-(2-hydroxybenzoyl)-hydrazine] as the compound, how does the IC50 read?
A: 0.82 µM

Q: With `O=C(/C=C/c1ccc(O)c(O)c1)N[C@@H](Cc1c[nH]c2ccccc12)C(=O)NNC(=O)c1ccccc1O` [Example 75, N1-(Nα-Caffeoyl-L-tryptophanyl)-N2-(2-hydroxybenzoyl)-hydrazine] as the compound, how does the IC50 read?
A: 1.2 µM

Q: `O=C(/C=C/c1ccc(O)c(O)c1)N[C@@H](Cc1ccc(O)c(O)c1)C(=O)NNC(=O)c1ccccc1O` [Example 76, N1-(Nα-Caffeoyl-L-3,4-dihydroxyphenylalanyl)-N2-(2-hydroxybenzoyl)-hydrazine] was tested. Which IC50 did it give?
A: 0.383 µM

Q: `O=C(N[C@@H](Cc1c[nH]c2ccccc12)C(=O)NNC(=O)c1ccccc1O)c1cc(O)c2cccc(O)c2n1` [Example 77, N1-[Nα-(4,8-Dihydroxyquinoline-2-carbonyl)-L-tryptophanyl]-N2-(2-hydroxybenzoyl)-hydrazine] was tested. Which IC50 did it give?
A: 4.7 µM

Q: `CC(C)(C)OC(=O)N[C@@H](Cc1cn(-c2ccc([N+](=O)[O-])cc2[N+](=O)[O-])cn1)C(=O)NNC(=O)c1ccccc1O` [Example 79, N1-[Nα-tert-Butoxycarbonyl-Nτ-(2,4-dinitrophenyl)-L-histidinyl]-N2-(2-hydroxybenzoyl)-hydrazine] was tested. Which IC50 did it give?
A: > 4 µM

Q: `O=C(C=Cc1ccc(O)c(O)c1)NC(Cc1cn(-c2ccc([N+](=O)[O-])cc2[N+](=O)[O-])cn1)C(=O)NNC(=O)c1ccccc1O` [Example 80, N1-[Nα-Caffeoyl-Nτ-(2,4-dinitrophenyl)-L-histidinyl]-N2-(2-hydroxybenzoyl)-hydrazine] was tested. Which IC50 did it give?
A: 0.251 µM

Q: For `O=C(C=Cc1ccsc1)NC(Cc1cn(-c2ccc([N+](=O)[O-])cc2[N+](=O)[O-])cn1)C(=O)NNC(=O)c1ccccc1O` [Example 81, N1-[Nα-(3-(3′-thiophenyl)acryloyl)-Nτ-(2,4-dinitrophenyl)-L-histidinyl]-N2-(2-hydroxybenzoyl)-hydrazine], which IC50 is on record?
A: > 10 µM

Q: Which IC50 does the source give for `COc1ccc(OC)c(NC(=O)[C@H](CCC(=O)NC(c2ccccc2)(c2ccccc2)c2ccccc2)NC(=O)/C=C/c2ccc(O)c(O)c2)c1` [Example 82, N-(Nα-Caffeoyl-Nδ-trityl-L-glutaminyl)-2,5-dimethoxyaniline] here?
A: 2.55 µM

Q: Which IC50 does the source give for `COc1ccc(OC)c(NC(=O)[C@H](CCC(=O)NC(c2ccccc2)(c2ccccc2)c2ccccc2)NC(=O)c2ccc(O)c(O)c2)c1` [Example 83, N-[Nα-(3,4-Dihydroxybenzoyl)-Nδ-trityl-L-glutaminyl]-2,5-dimethoxyaniline] here?
A: 2.25 µM

Same assay, conditions: Table 2, compounds of formula III′; read-out: IC50

Q: `O=C(NCCCC[C@H](NC(=O)c1cc2cccc(O)c2cc1O)C(=O)OCc1ccccc1)c1cc2cccc(O)c2cc1O` [Example 55, Nα,Nε-di-(3,5-Dihydroxynaphthyl-2-carbonyl)-L-L-lye Benzyl Ester] was tested. Which IC50 did it give?
A: > 5 µM

Q: How did the IC50 turn out when `Cc1ccc(C(c2ccccc2)(c2ccccc2)n2cnc(C[C@H](NC(=O)c3cc(O)c4cccc(O)c4n3)C(=O)NCCc3ccc(O)c(O)c3)c2)cc1` [Example 71, N-[Nα-(4,8-Dihydroxyquinoline-2-carbonyl)-Nτ-methyltrityl-L-histidinyl]dopamine] was run?
A: 0.607 µM

Same assay, conditions: Table 3, compounds of formula IV′; read-out: IC50

Q: With `O=C(CC[C@H](NC(=O)c1cc(O)c2cccc(O)c2n1)C(=O)NNC(=O)c1ccccc1O)NNC(=O)c1ccccc1O` [Example 78, N1-[Nα-(4,8-Dihydroxyquinoline-2-carbonyl)-L-glutamyl]-N2/Nδ-di-(2-hydroxybenzoyl)-dihydrazine] as the compound, how does the IC50 read?
A: > 9.7 µM
